Experimental data from patent US8470363B2, “Antihypertensive pharmaceutical composition” (Shihuida Pharmaceuticals Group (JILIN) Ltd., priority 2010, dated 2013).

Experiments:
[1] = tested on: spontaneous hypertension SHR rats; assay: Blood pressure depressing test in rats (tail artery systolic pressure, tail volume method); type: in vivo, rat; details: for systolic pressure at the tail artery, before administration: baseline before administration, n=10 per group; for antihypertensive effect compared with the blank model group / systolic pressure at the tail artery, 1 week after administration / systolic pressure at the tail artery, 2 weeks after administration / systolic pressure at the tail artery, 3 weeks after administration / systolic pressure at the tail artery, 4 weeks after administration: intragastric; for antihypertensive effect compared with the blank model group: doses as in Table 3; for systolic pressure at the tail artery, 1 week after administration / systolic pressure at the tail artery, 2 weeks after administration / systolic pressure at the tail artery, 3 weeks after administration / systolic pressure at the tail artery, 4 weeks after administration: levamlodipine benzenesulfonate 5 mg/kg·d, indapamide 5 mg/kg·d, compound low-dose 2.5+0.5 mg/kg·d, compound high-dose 2.5+2.5 mg/kg·d
Description: (§1) Experiment method: 50 health spontaneous hypertension SHR rats (female to male 1:1, weight 200-240 g) were equally divided into 5 groups according to the level of the hypertension (the specific grouping method is as shown in Table 3), and intragastrically administrated with the medicine. For the blood pressure of the rate, the systolic pressure at the tail artery of the rat when being wake and quite was indirectly measured by an electronic blood pressure meter through the tail volume method respectively before administration and at the end of one, two, three, and four weeks after administration. [table]

[2] = background statement, species not given; cited from earlier work
[3] = tested on: spontaneous hypertension SHR rats; assay: Edema side effect in the SHR rat blood pressure test; type: in vivo; details: intragastric
Description: as §1, with “administration.” for “administration. [table]”

Row | Compound | systolic pressure at the tail artery, before administration [1] [KPa] | antihypertensive effect compared with the blank model group [1] | systolic pressure at the tail artery, 1 week after administration [1] [Kpa] | systolic pressure at the tail artery, 2 weeks after administration [1] [KPa] | systolic pressure at the tail artery, 3 weeks after administration [1] [KPa] | systolic pressure at the tail artery, 4 weeks after administration [1] [KPa] | half-life [2] [h] | occurrence of edema side effect ([3]; doses as in Table 3, up to 4 weeks) | edema incidence rate ([3]; 5 mg levamlodipine benzenesulfonate/kg·d, up to 4 weeks) [%]
1 | CC1Cc2ccccc2N1NC(=O)c1ccc(Cl)c(S(N)(=O)=O)c1 (stereo not drawn) [Indapamide, indapamide] | 27.02 ± 1.39 | significant antihypertensive effect | 26.88 ± 1.38 | 25.85 ± 1.38 | 25.56 ± 1.35 | 25.36 ± 1.36 | 17 | no edema occurred | 
2 | levamlodipine benzenesulfonate | 26.96 ± 1.29 | significant antihypertensive effect | 26.79 ± 1.31 | 25.33 ± 1.26 | 24.55 ± 1.28 | 23.87 ± 1.28 |  |  | 10
